Measurements taken from US20140357713A1, “ANTIMICROBIAL COMPOUNDS AND METHODS OF USE” (NexMed Holdings, Inc., priority 2012, published 2014).
Counter-ions that a name gives are not always drawn. Like-named read-outs stand apart in the source and are kept apart here.

Tests used:
[1] = system: Aspergillus niger (CMCC 98003); assay: Minimum inhibitory concentration (MIC) assay, Example 33; format: cell-based
Experimental: (§1) Thirty compounds were tested for antimicrobial activity using standard procedures and standard strains for both the minimum inhibitory concentration (MIC) assay and a time kill study. Both the MIC assay and the time kill study were performed according to Clinical and Laboratory Standards Institute (CLSI) guidelines. Three bacteria strains, Escherichia coli (ATCC 25922), Pseudomonas aeruginosa (ATCC 27853), Staphulococcus aureus (ATCC 29213), and two fungus strains, Candida albicans (ATCC 90029) and Aspergillus niger (CMCC 98003), were used in the experiments.
(§2) Preparation of cultures. Before the experiment, two days for the bacteria strains and five days for fungus strains, an aliquot was removed from the cultures frozen at −80° C. Medium was added to the surface of an appropriate agar plate and streaked with the aliquot. The plate was incubated for 20 to 24 hrs at 35±2° C. for bacteria or for 5 days at 26-30° C. in incubator for fungus. From the resulting growth on each plate, one isolated colony of similar morphology was selected and re-streaked onto a fresh agar plate using a sterile disposable loop. The plate was incubated 20 to 24 hrs at 35±2° C. or for 5 days at 26-30° C. in an incubator.
(§3) Preparation of Assay Plates with Medium and Drugs. On the day of the assay, CAMHB medium or RPMI 1640 medium was removed from 4′C storage and allowed to reach room temperature. Ninety microliters (μL) of room temperature CAMHB or RPMI 1640 (supplemented with the appropriate concentration of DMSO, if required) were added to rows B-G of each 96-well microtiter plate. Using a pipette, duplicate 180 μL aliquots of each drug stock solution were added to column 1 (e.g. A1 and B1 or C1 and D1 or E1 and F1 or G1 and H1). Using a multichannel pipette or the Provision 2000 liquid handler, serial 2-fold dilutions (90 μL) were performed in each row across the plate to row G. Eighty μL of compounds dilutions were transferred to a 96-deep well plate. Medium, 1,520 μL of CAMHB or RPMI 1640, was added to each well. The contents of the wells were mixed thoroughly. A 50 μL aliquot of each of the resulting mixtures was transferred to a 96-well assay plate.
(§4) For Aspergillus niger, sporulating colonies were covered with RPMI 1640, and a suspension was prepared by gently probing the colonies with the tip of a transfer pipette. The suspension was transferred to a sterile tube and mixed with a vortex mixer for 15 seconds. The densities at 530 nm were adjusted to 0.09-0.13 for each sample. The resulting suspension was diluted 1:50 with the medium to obtain two times test inoculums. Fifty μL/well of this inoculum suspension was added to wells of drug-containing plates (1:2 dilution). Plates were incubated at 35° C. for the appropriate times. The MIC was read and recorded according to CLSI guidelines.
(§5) The MIC values for thirty compounds against Escherichia coli, Pseudomonas aeruginosa, Staphulococcus aureus, Candida albicans, and Aspergillus niger were recorded and are presented in Table 3 and Table 4.

[2] = system: Escherichia coli (ATCC 25922); assay: as above; format: cell-based
Experimental: as §1, §2, §3
(§6) For bacteria, a sterile inoculating loop was used to transfer growth from an agar plate culture into about 5 mL of test medium. Using a turbidity meter, this inoculum was adjusted so that its density (600 nm) was equivalent to a 0.5 McFarland barium sulfate standard (0.08-0.13). The resulting suspension was diluted 1:100 into medium to obtain two times test inoculums.
as §4, §5

[3] = system: Pseudomonas aeruginosa (ATCC 27853); assay: as above; format: cell-based; conditions: for MIC: Table 19 summary
Experimental: as §1, §2, §3, §6, §4, §5

[4] = system: Candida albicans (ATCC 90029); assay: Time kill study, Example 33 (0 to 5 min); format: cell-based; conditions: 1×MIC
Experimental: as §1
(§7) The viable counts in Log10 CFU/mL at each time point were recorded.
(§8) Time kill studies. Strain suspensions were prepared as described above for the MIC test, and strain suspensions and compound solutions were mixed in the same volume. Samples were removed at specified times including 0 min, 30 sec, 1 min and 5 mins, were diluted in the test medium and streaked on agar. Colonies were counted after 24 to 48 hrs of incubation. […]

[5] = system: Escherichia coli (ATCC 25922); assay: Time kill study, Example 33 (0 to 5 min); format: cell-based; conditions: 1×MIC, sulfate
Experimental: as §1, §7, §8

[6] = system: Staphylococcus aureus (ATCC 29213); assay: Time kill study, Example 33 (0 to 5 min); format: cell-based; conditions: 1×MIC
Experimental: as §1, §7, §8

[7] = system: Pseudomonas aeruginosa (ATCC 27853); assay: Time kill study, Example 33 (0 to 5 min); format: cell-based; conditions: 1×MIC
Experimental: as §1, §7, §8

pH (Table 1) = format: physicochemical
[8] = system: Staphulococcus aureus (ATCC 29213); assay: Minimum inhibitory concentration (MIC) assay, Example 33; format: cell-based, Staphylococcus aureus
Experimental: as §1, §2, §3, §6, §4, §5

[9] = system: Candida albicans (ATCC 90029); assay: as above; format: cell-based
Experimental: as §1, §2, §3
For Candida albicans, a sterile inoculating loop was used to transfer growth from an agar plate culture into a tube with RPMI1640 medium. This inoculum was adjusted so that its density at 530 nm was in the ranges from 0.08 to 0.13. The resulting suspension was diluted 1:50 and further diluted 1:20 with the medium to obtain two times test inoculums.
as §4, §5

## CCCCCCCCCCCCOC(=O)C(C)N(C)C (centres unmarked) [Nex-03, Dodecyl 2-(dimethylamino)propanoate sulfate]
[1]; Aspergillus niger, CMCC98003, n = 1, read-out: MIC Aspergillus niger
  MIC: > 12.5 mg/mL
[1]; Aspergillus niger, CMCC98003, n = 2, read-out: MIC Aspergillus niger
  MIC: > 12.5 mg/mL
[1]; Table 19 summary, sulfate
  MIC: >12.5 mg/mL
[2]; Table 19 summary of Example 33 and Example 35, sulfate
  MIC: 1.56 mg/mL
[2]; n = 1, sulfate
  MIC E. coli: 1.56 mg/mL
[2]; n = 2, sulfate
  MIC E. coli: 1.56 mg/mL
[3]; sulfate
  MIC: 3.13 mg/mL
[3]; n = 1, sulfate
  MIC P. aeruginosa: 3.13 mg/mL
[3]; n = 2, sulfate
  MIC P. aeruginosa: 3.13 mg/mL
[4]; 0.5 min, sulfate
  Viable counts, Candida albicans time kill study: 5.53 Log10 CFU/mL
[4]; 1 min, sulfate
  Viable counts, Candida albicans time kill study: 5.54 Log10 CFU/mL
[4]; 5 min, sulfate
  Viable counts, Candida albicans time kill study: 5.52 Log10 CFU/mL
[4]; time 0, sulfate
  Viable counts, Candida albicans time kill study: 5.6 Log10 CFU/mL
[5]; 0.5 min
  Viable counts, Escherichia coli time kill study: 4.90 Log10 CFU/mL
[5]; 1 min
  Viable counts, Escherichia coli time kill study: 4.18 Log10 CFU/mL
[5]; 5 min
  Viable counts, Escherichia coli time kill study: 3.82 Log10 CFU/mL
[5]; time 0
  Viable counts, Escherichia coli time kill study: 4.92 Log10 CFU/mL
[6]; 0.5 min, sulfate
  Viable counts, Staphylococcus aureus time kill study: 6.1 Log10 CFU/mL
[6]; 1 min, sulfate
  Viable counts, Staphylococcus aureus time kill study: 6.12 Log10 CFU/mL
[6]; 5 min, sulfate
  Viable counts, Staphylococcus aureus time kill study: 6.11 Log10 CFU/mL
[6]; time 0, sulfate
  Viable counts, Staphylococcus aureus time kill study: 6.11 Log10 CFU/mL
[7]; 0.5 min, sulfate
  Viable counts, Pseudomonas aeruginosa time kill study: <4.0 Log10 CFU/mL
[7]; 1 min, sulfate
  Viable counts, Pseudomonas aeruginosa time kill study: <3.70 Log10 CFU/mL
[7]; 5 min
  Viable counts, Pseudomonas aeruginosa time kill study: <3.52 Log10 CFU/mL
[7]; time 0, sulfate
  Viable counts, Pseudomonas aeruginosa time kill study: 5.6 Log10 CFU/mL
pH (Table 1); sulfate
  pH: 1.60
[8]; Table 19 summary, sulfate
  MIC: 1.56 mg/mL
[8]; n = 1, sulfate
  MIC S. aureus: 1.56 mg/mL
[8]; n = 2, sulfate
  MIC S. aureus: 1.56 mg/mL
[9]; n = 1, sulfate
  MIC Candida albicans: 12.5 mg/mL
[9]; n = 2, sulfate
  MIC Candida albicans: 6.25 mg/mL

## CCCCCCCCCCCCOC(=O)C(C)N(C)C (centres unmarked) [Nex-15, Dodecyl 2-(dimethylamino)propanoate phosphate]
[1]; Table 19 summary, phosphate
  MIC: 12.5 mg/mL
[1]; n = 1, phosphate
  MIC Aspergillus niger: 12.5 mg/mL
[2]; Table 19 summary of Example 33 and Example 35, phosphate
  MIC (mg/ml): ≧12.5 mg/ml
[2]; n = 1, phosphate
  MIC E. coli: >12.5 mg/mL
[2]; n = 2, phosphate
  MIC E. coli: >12.5 mg/mL
[3]; phosphate
  MIC: >12.5 mg/mL
[3]; n = 1, phosphate
  MIC P. aeruginosa: >12.5 mg/mL
[3]; n = 2, phosphate
  MIC P. aeruginosa: >12.5 mg/mL
[4]; 0.5 min, phosphate
  Viable counts, Candida albicans time kill study: 5.23 Log10 CFU/mL
[4]; 1 min, phosphate
  Viable counts, Candida albicans time kill study: 5.25 Log10 CFU/mL
[4]; 5 min, phosphate
  Viable counts, Candida albicans time kill study: 5.28 Log10 CFU/mL
[4]; time 0, phosphate
  Viable counts, Candida albicans time kill study: 5.12 Log10 CFU/mL
[6]; 0.5 min, phosphate
  Viable counts, Staphylococcus aureus time kill study: 6.16 Log10 CFU/mL
[6]; 1 min, phosphate
  Viable counts, Staphylococcus aureus time kill study: 6.14 Log10 CFU/mL
[6]; 5 min, phosphate
  Viable counts, Staphylococcus aureus time kill study: 6.14 Log10 CFU/mL
[6]; time 0, phosphate
  Viable counts, Staphylococcus aureus time kill study: 6.23 Log10 CFU/mL
pH (Table 1); phosphate
  pH: 2.01
[8]; n = 1, phosphate
  MIC S. aureus: 0.39 mg/mL
[8]; n = 2, phosphate
  MIC S. aureus: 0.2 mg/mL
[9]; Table 19 summary, phosphate
  MIC: 0.05 mg/mL
[9]; n = 1, phosphate
  MIC Candida albicans: 0.05 mg/mL
[9]; n = 2, phosphate
  MIC Candida albicans: 0.05 mg/mL
